Reference: BigSolDB 2.1

CC1(C)O[C@H]2CC(=O)OC[C@]23[C@H]2CC[C@@]4(C)[C@H](c5ccoc5)OC(=O)[C@H]5O[C@]54[C@]2(C)C(=O)C[C@@H]13
solubility (mole fraction)
Settings	283.2 K	288.2 K	293.2 K	298.2 K	303.2 K	308.2 K	313.2 K	318.2 K
in acetone	0.00409	0.00454	0.00465	0.00471	0.00474	0.00497	0.00516	0.0055
in methanol	7.08e-05	7.81e-05	9.2e-05	0.000101	0.00012	0.000137	0.000162	0.000192
in water	1.17e-07	2.37e-07	4.77e-07	5.97e-07	8.3e-07	1.04e-06	1.17e-06	1.49e-06
